Like-named read-outs stand apart in the source and are kept apart here.
Columns and labels:
Format in all cases: cell-based, human
SBC3 cells [1] = assay: CCK-8 cell viability/cytotoxicity assay, 72 h; conditions: Homo sapiens, SBC-3
Description: (§1) The expression levels of DRP1 and DHODH in SCLC lines were compared with non-malignant BEAS 2B cells. […] Previous studies have shown that Leflu and its active metabolite Teri regulate mitochondrial morphology (9,10,26). […] In vitro cytotoxicity effect of Teri and Leflu was tested in a panel of SCLC cell lines. Ten SCLC cell lines were treated with increasing concentrations of each drug for 72 h.
(§2) Isobologram and CI50 values were calculated using the Chou-Talalay method and IC50 to find synergism (FIG. 3B).

SBC5 cells [2] = assay: CCK-8 cell viability/cytotoxicity assay, 72 h
Description: as §1, §2

SBC3 cells [3] = assay: IncuCyte S3 live-cell proliferation
Description: (§3) FIGS. 2A-2I. Teriflunomide (Teri) affects the phosphorylation of DRP1 at Ser^616 and mitochondrial/nuclear morphology. FIG. 2A: Effect of Teri and Leflu on SBC3, and SBC5 cells proliferation was recorded by the Sartorius IncuCyte S3 live-cell analysis system (n=2, four technical replicates). […] FIG. 2B: Effect of Teri on DRP1 phosphorylation in SBC3 cells. Cell lysates were subjected to immunoblotting (n=3, biological replicates). FIG. 2C: The expression ratio of level of pDRP1 Ser^616 and Ser^637 to actin was calculated via densitometric analysis of each blot using ImageJ software. The detected ratio of pDRP1 Ser^616 to pDRP1 Ser^637 was calculated and compared in SBC3 cells. […] FIGS. 2D-2E: Calculating pDRP1 Ser^616 fluorescence signal by QuPath software. Bar graphs mean±SE, *p<0.05; **p<0.01; ***p<0.001; ****p<0.0001. Results were analyzed by ANOVA with Tukey post-test. FIG. 2F: The surface areas of SBC3 mitochondria and nuclei were quantified with Imaris Cells modules. The minimal number of SBC3 cells analyzed for each group was 103 (M1 10 μM), and the maximal was 383 (Control). FIG. 2G: SBC5 mitochondria and nuclei surface areas were quantified with Imaris Cells modules. The minimal number of SBC5 cells analyzed for each group was 357 (MDIVI1 10 μM) and the maximal was 570 (Control). Results were analyzed by ANOVA with Tukey post-test, *p<0.05; **p<0.01; ****p<0.0001. Mitochondria in control cells were closely packed around the nuclei and treatment with Teri rearranged the mitochondrial network and extended the area from the nuclei. […] SBC3 cells were treated with drugs for 18 hours, fixed with paraformaldehyde and subjected to IF staining with Tom 20 antibody, nuclei were stained with Hoechst 33342. Scale bar 10 μm. Right inserts represent shape of mitochondria for control and treatments. FIG. 2I: High resolution confocal IF images of mitochondria in SBC5 cells. Scale bar 10 μm. Right inserts represent shape of mitochondria for control and treatments.

SBC5 cells [4] = assay: IncuCyte S3 live-cell proliferation
Description: as §3

SBC5 cells [5] = assay: Imaris quantification of mitochondrial and nuclear areas/morphology; conditions: for effect on mitochondrial areas: SBC5
Description: Imaris 9.9.0 (Bitplane, AG), with Surfaces and Cells modules, was used to generate mitochondria morphology data from 2D images and 2D Z-stack subsets. Surfaces were used to evaluate individual mitochondria from cell monolayers and spheroids. Detection parameters were optimized for visible mitochondria and nuclei in each group with varying signal intensities. Roundness ratios were calculated from Surface generated Bounding Box 00 Length measurements. Object lengths less than 0.1 μm were excluded, and lengths greater than 1.26 μm were separately analyzed as clusters. Thresholds were uniformly applied to roundness ratios to categorize mitochondria morphology as elongated (<0.599), intermediate (≥0.600-0.649), or round/fragmentated (≥0.650). The percentage of cells from total number is based on a ratio. A perfectly round object has a ratio of 1.0. The Cells module was used to detect and quantify mitochondria and nucleus area from cell monolayers. Identical parameters were applied to all groups with cell boundary detection based on mitochondria signals. Imaris includes nuclei in cytoplasm measurements, so mitochondrial area is calculated by subtracting nucleus area from cell cytoplasm area. Abnormal nuclei were excluded (<100 μm^2, >750 μm^2).
Next, we performed the same analysis with SBC5 cells. […] Mitochondrial elongation in SBC3 cells treated with Teri and Leflu is visible and correlates with Imaris Surface results. […] Although mitochondrial areas of SBC5 cells were not affected by Teri and Leflu treatments, elongations of individual mitochondria were detected with each treatment (FIG. 2I). […] Therefore, it is important to investigate the effects of Teri and Leflu on mitochondrial morphology and cell survival in combination with chemotherapeutic drugs.

H446 spheroids = assay: Spheroid MitoSOX assay (mitochondrial superoxide); conditions: increase after 40 h
Description: The IncuCyte system recorded two days MitoSOX red dye (Thermo Fisher Scientific, Waltham, MA) penetration in live H446 spheroids. Spheroids were labeled with 5 μM of dye and red fluorescence was assessed by IncuCyte software. Fluorescence and brightfield images were acquired on an Axio Observer 7 (Carl Zeiss, Jena, Germany) inverted microscope, equipped with a 10×/0.45 NA Plan-Apochromat objective, TL halogen lamp, Colibri 7, filter set 90 HE, and captured on a Zeiss Axiocam 702 CMOS camera. Exposure times and wavelengths were 15 ms (red fluorescence), 9.4 ms (brightfield), BP 555/30 excitation filter, and QBP 592/25 emission filter.

[6] = SBC3 cells, 72 h, read-out: IC50

SMILES	IC50 (SBC3 cells [1]; [6]) [µM]	IC50 (SBC5 cells [2]; Homo sapiens, SBC-5, 72 h) [µM]	cell proliferation (SBC3 cells [3])	cell proliferation (SBC5 cells [4])	effect on mitochondrial areas (SBC5 cells [5])	Nuclear area (SBC5 cells [5]; SBC5, 20 μM) [μm^2]	mitochondrial superoxide levels (MitoSOX) (H446 spheroids)	IC50 (SBC3 cells [1]; SBC3, CCK-8 72 h, fixed concentrations of Teri and Carbo, read-out: IC50, single treatment and combination treatment) [µM]	IC50 (SBC5 cells [2]) [µM]	Nuclear area (SBC5 cells [5]; SBC5, 10 μM) [μm^2]
Cc1oncc1C(=O)Nc1ccc(C(F)(F)F)cc1 [Leflunomide, leflunomide]	8.9	108	inhibited cell proliferation in a dose-dependent manner	inhibited cell proliferation in a dose-dependent manner	not affected	386.8±7.23	–	–	–	–
COc1ccc2[nH]c3c(c2c1)CCN[C@]31CS[C@@H]2c3c(OC(C)=O)c(C)c4c(c3[C@H](COC1=O)N1[C@@H]2[C@H]2c3c(cc(C)c(OC)c3O)C[C@@H]([C@@H]1O)N2C)OCO4 [Lurbinectedin, lurbinectedin]	–	–	–	–	–	–	unaffected	–	–	–
C/C(O)=C(\C#N)C(=O)Nc1ccc(C(F)(F)F)cc1 [Teriflunomide, teriflunomide]	2	30	inhibited cell proliferation in a dose-dependent manner	inhibited cell proliferation in a dose-dependent manner	not affected	369.8±5.94	unaffected	4.24	33	369.5±6.15

— patent US20250041313A1, “COMBINATION THERAPY FOR TREATMENT OF CANCER” (CITY OF HOPE, priority 2023, published 2025)
